# Where a name gives a salt, the structure may show the parent alone. Read-outs that look alike come from different tables or passages of the source.
# How the values were obtained:
# [1] = target: T1, Human erythrocyte acetylcholinesterase (Homo sapiens, UniProt P22303); test: biochemical; type: biochemical
# T1 construct: Human erythrocyte acetylcholinesterase (type XIII, Sigma Israel); purchased Sigma Israel type XIII; host or cells: human erythrocytes
# Procedure: Human erythrocyte acetylcholinesterase (type XIII, Sigma Israel), was prepared in a stock solution of 1 U/ml, containing Triton (1%) and bovine serum albumin (0.05%) in phosphate buffer (pH 8). The enzyme (0.05U) was incubated with 3-5 different concentrations of test compound (in triplicate) for periods of from 15 to 60 minutes at 37° C. […] The percentage inhibition of AChE by each concentration of drug is calculated by comparison with that of enzyme in the absence of drug.
# MAO-A [2] = target: T2, MAO-A (Rattus norvegicus, UniProt P21396); test: Inhibition of MAO activity in vitro, 5-HT as substrate; type: biochemical; set-up: The MAO enzyme source was a homogenate of rat brain in 0.3M sucrose; from tissue; host or cells: rat brain homogenate, 600 g supernatant; conditions: 5-HT substrate
# T2 sequence (P21396 1-526): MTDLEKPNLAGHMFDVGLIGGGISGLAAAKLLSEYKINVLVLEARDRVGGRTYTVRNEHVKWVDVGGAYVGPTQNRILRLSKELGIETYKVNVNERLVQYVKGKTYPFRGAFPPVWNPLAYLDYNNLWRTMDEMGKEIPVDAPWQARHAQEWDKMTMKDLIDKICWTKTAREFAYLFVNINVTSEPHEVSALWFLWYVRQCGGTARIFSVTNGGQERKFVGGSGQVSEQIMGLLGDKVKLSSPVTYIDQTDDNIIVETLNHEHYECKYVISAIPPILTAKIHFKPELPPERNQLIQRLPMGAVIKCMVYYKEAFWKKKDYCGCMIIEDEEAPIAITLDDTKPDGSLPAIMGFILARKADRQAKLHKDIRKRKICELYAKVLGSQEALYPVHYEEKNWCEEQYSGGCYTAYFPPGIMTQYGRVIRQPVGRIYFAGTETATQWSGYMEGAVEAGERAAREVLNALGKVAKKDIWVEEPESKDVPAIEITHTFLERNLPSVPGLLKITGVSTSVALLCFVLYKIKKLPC
# Procedure: (§1) Substrate concentrations used were 50 μM (PEA) and 1 mM (5-HT).
# [3] = system: mice, hypobaric hypoxic model; test: animal or person; type: in vivo; conditions: for response vs control in vivo at 0.2 mg/kg: 0.2 mg/kg sc
# Source text: A 12 liter desiccator (desiccator A) and a 2.5 liter desiccator (desiccator B) were separately connected to a vacuum pump. Desiccator B was disconnected and allowed to equilibrate with room air whilst desiccator A was evacuated to a pressure of 100 mmHg. Four male ICR albino mice (22-28 g) were placed in desiccator B. Desiccator B was then closed to room air and connected to desiccator A. The pressure inside desiccator B was monitored using a mercury manometer and at the point were the pressure in desiccator B reached 200 mmpg (usually within 14 seconds), the two desiccators were disconnected from the vacuum pump and the pump switched off. The survival time from the moment of induction of hypoxia to the time of cessation of respiration was recorded for each mouse for a maximum of 15 minutes after which time room air was reintroduced to desiccator B. Survivors were monitored for signs of lethargy or vitality.
# Effect of drug treatment was assessed as the percent of the survival time of the drug treated group with respect to the saline injected or vehicle injected control group. […] The effect of each dose of test drug was determined in duplicate i.e. two groups of 4 mice.
# Positive reference drugs were sodium pentobarbital at a dose of 40 mg/kg, and diazepam 10 mg/kg given 0.5 h prior to hypoxia, physostigmine 0.2 and 0.4 mg/kg and neostigmine 0.2 mg/kg given sc 30 min before hypoxia. Methyl atropine 1 mg/kg was given sc. 10 min. before physostigmine.
# Test drugs were dissolved in 0.9% saline, and injected sc. in the nip of the neck at a dose in accordance with body weight, 60-90 min. before hypoxia. The volume of injection was 0.2-0.3 mL per mouse (10 mL/kg). The initial dose was about one third of the reported LD50 for acetylcholine esterase inhibition. If no protection could be obtained, the dose was further increased to the nearest non-toxic dose. In case of protection, the dose was further reduced in an attempt to locate the “protective” dose range.
# mice = conditions: mice, within 6 hours after administration
# Procedure: Therapeutic Ratio was calculated as LD50 divided by ED50 of ex vivo acetylcholine esterase inhibition.
# whole brain AChE = target: T3, whole brain AChE (Mus musculus, UniProt P21836); conditions: for AChE Inhibition Ex vivo ED50 (AC): mice, whole brain, at peak of activity; for AChE Inhibition Time to peak activity t / AChE Inhibition Time to return to 50% of peak t: mouse, in vivo
# T3 sequence (P21836 32-614): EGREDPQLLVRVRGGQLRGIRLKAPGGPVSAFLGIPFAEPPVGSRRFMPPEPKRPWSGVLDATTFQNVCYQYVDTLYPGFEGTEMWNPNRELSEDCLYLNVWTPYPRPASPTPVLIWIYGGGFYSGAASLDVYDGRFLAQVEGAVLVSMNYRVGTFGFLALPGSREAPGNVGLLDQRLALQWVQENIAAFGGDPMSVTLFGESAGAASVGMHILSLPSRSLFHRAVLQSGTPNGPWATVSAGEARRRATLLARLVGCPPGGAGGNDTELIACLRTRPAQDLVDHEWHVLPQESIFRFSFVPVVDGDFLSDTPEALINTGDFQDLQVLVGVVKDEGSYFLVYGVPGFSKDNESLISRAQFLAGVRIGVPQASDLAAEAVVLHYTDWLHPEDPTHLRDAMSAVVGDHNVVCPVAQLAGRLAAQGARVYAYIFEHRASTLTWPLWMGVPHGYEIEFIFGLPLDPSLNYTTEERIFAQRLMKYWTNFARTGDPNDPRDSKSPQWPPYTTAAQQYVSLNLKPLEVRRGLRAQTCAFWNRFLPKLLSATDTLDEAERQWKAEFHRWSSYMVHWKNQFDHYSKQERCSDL
# Procedure: Test drugs or saline were administered sub-cutaneously to male mice (Sabra strain, 28-35 g). […] The mice were sacrificed 15, 30, 50, 70, 90, 120 or 180 minutes after drug administration, the brains rapidly removed (minus cerebellum), weighed and homogenized in 0.1 M phosphate buffer, pH 8.0, containing Triton (1 mg/100 g tissue) and centrifuged to remove cell debris. Aliquots (25 μl) of the supernatant were then incubated with acetylthiocholine and DTNB. AChE activity was measured as described above. The % inhibition of whole brain AChE by each dose of drug was calculated by comparison with enzyme activity from 3 saline treated control mice run at the same time.
# MAO-A [4] = target: T4, MAO-A (Mus musculus, UniProt Q64133); test: Inhibition of MAO activity ex vivo (brain); type: in vivo, mice; conditions: mice, brain tissue
# T4 construct: from tissue; host or cells: mouse brain
# T4 sequence (Q64133 1-526): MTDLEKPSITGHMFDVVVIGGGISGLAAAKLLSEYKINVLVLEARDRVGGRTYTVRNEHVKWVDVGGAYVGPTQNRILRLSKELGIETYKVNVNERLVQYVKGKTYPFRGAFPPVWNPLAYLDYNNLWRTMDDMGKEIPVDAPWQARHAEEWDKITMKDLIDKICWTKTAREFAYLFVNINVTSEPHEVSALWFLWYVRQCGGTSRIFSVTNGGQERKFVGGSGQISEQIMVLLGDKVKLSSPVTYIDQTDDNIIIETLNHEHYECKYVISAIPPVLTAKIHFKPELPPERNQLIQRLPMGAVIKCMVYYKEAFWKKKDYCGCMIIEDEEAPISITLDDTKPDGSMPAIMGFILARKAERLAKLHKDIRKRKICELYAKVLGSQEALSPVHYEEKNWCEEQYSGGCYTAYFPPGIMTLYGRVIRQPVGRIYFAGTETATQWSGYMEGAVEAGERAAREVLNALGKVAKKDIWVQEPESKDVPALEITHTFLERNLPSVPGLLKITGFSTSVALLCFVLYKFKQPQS
# Procedure: as §1
# (§2) Male Sabra mice, weighing 45-50 g were injected with test compound solutions (prepared in 0.9% saline). Each dose was administered to two or three mice. The mice were sacrificed two hours after drug administration or at a time corresponding to the peak AChE inhibition time (see Table 11). The brain and liver were rapidly dissected and stored in appropriate vials on ice. The tissues were weighed, diluted to ½ in sucrose 0.3M and stored at −20° C. before performance of the MAO assay described above. The results given in Table 11 relate to measurements made on brain tissue only.
# MAO-B = target: T5, MAO-B (Mus musculus, UniProt Q8BW75); test: Inhibition of MAO activity ex vivo (brain); type: in vivo, mice; conditions: mice, brain tissue
# T5 construct: from tissue; host or cells: mouse brain
# T5 sequence (Q8BW75 1-520): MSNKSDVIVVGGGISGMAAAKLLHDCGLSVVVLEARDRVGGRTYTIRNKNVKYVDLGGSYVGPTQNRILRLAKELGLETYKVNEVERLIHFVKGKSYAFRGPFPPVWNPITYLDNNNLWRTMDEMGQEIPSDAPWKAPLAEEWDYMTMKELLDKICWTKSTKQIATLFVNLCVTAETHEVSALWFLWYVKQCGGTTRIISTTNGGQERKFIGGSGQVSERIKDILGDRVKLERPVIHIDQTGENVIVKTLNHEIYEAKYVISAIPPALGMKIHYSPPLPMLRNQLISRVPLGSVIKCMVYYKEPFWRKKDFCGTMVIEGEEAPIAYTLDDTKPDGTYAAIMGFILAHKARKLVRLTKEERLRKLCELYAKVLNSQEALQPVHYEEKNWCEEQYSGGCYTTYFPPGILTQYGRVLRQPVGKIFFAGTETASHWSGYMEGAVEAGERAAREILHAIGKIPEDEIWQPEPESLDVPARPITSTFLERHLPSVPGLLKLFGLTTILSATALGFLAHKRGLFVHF
# Procedure: as §1, §2
# [5] = read-out: AChE Inhibition In vitro IC50
# [6] = Mus musculus, 30 min before hypoxia, read-out: Protection (survival time)
# [7] = human erythrocyte AChE, at time of peak activity, read-out: AChE Inhibition In vitro IC50
# T1 sequence (P22303 32-617 isoform P22303-2 limits assumed): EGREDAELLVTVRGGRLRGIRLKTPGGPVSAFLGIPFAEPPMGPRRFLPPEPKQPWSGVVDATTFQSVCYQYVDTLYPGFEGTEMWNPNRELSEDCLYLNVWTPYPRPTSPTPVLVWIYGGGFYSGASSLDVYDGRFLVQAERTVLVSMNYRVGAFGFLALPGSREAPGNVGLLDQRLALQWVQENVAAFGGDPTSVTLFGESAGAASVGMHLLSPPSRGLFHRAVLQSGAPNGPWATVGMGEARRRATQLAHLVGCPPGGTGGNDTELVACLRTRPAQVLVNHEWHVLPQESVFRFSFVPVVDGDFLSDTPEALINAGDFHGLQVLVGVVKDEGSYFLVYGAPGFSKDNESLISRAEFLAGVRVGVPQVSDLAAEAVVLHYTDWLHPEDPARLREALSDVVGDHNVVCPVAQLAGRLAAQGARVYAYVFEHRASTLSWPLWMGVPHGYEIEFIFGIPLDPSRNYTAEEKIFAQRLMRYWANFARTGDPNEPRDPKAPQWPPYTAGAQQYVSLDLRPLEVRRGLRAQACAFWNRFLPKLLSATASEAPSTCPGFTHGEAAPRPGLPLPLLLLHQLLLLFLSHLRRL
smiles,measurement,setting,value
CCCN(C)C(=O)Oc1ccc2c(c1)C(N)CC2 (stereo not drawn) [Compound 2],IC50,[1]; [5],7.3 µM
same,IC50,"MAO-A [2]; rat brain homogenate, read-out: MAO-A Inhibition In vitro IC50",32 µM
CN(C)C(=O)Oc1ccc2c(c1)C(N(C)C)CC2 (stereo not drawn) [Compound 12],response vs control in vivo at 7 mg/kg,"[3]; Mus musculus, sc, read-out: Protection (survival time), 7 mg/kg sc, 60 min before hypoxia",248 ± 97%
same,response vs control in vivo at 10 mg/kg,"[3]; Mus musculus, sc, read-out: Protection (survival time), 10 mg/kg sc, 60 min before hypoxia",386 ± 238%
same,response vs control in vivo at 15 mg/kg,"[3]; Mus musculus, sc, read-out: Protection (survival time), 15 mg/kg sc, 60 min before hypoxia",649 ± 221%
same,response vs control in vivo at 20 mg/kg,"[3]; Mus musculus, sc, read-out: Protection (survival time), 20 mg/kg sc, 60 min before hypoxia",725 ± 128%
same,Acute Toxicity LD50 (LD),mice,<20 µmol/kg
same,AChE Inhibition Ex vivo ED50 (AC),whole brain AChE,8.0 µmol/kg
same,AChE Inhibition Time to peak activity t,whole brain AChE,15 min
C#CCN(C)C1CCc2ccc(OC(=O)N(C)CC)cc21 (stereo not drawn) [Compound 30],IC50,[1]; [5],1300 µM
"C#CCNC1CCc2ccc(OC(=O)N(C)C)cc21 (single isomer, unassigned) [Compound 55]",MAO-A Inhibition Ex vivo ED50,MAO-A [4],>100 µmol/kg
same,MAO-B Inhibition Ex vivo ED50,MAO-B,>100 µmol/kg
CCN(C)C(=O)Oc1cccc2c1C(N)CC2 (stereo not drawn) [Compound 5],Acute Toxicity LD50 (LD),mice,840 µmol/kg
same,MAO-A Inhibition Ex vivo ED50,MAO-A [4],>>277 μmoles/kg
same,MAO-B Inhibition Ex vivo ED50,MAO-B,>>277 μmoles/kg
same,AChE Inhibition Ex vivo ED50 (AC),whole brain AChE,85.0 µmol/kg
same,AChE Inhibition Time to peak activity t,whole brain AChE,60 min
same,AChE Inhibition Time to return to 50% of peak t,whole brain AChE,>120 min
C#CCNC1CCc2cccc(OC(=O)N(C)CC)c21 (stereo not drawn) [Compound 33],IC50,[1]; AChE Inhibition In vitro IC50,540 µM
same,MAO-A Inhibition Ex vivo ED50,MAO-A [4],>>1200 μmoles/kg
same,MAO-B Inhibition Ex vivo ED50,MAO-B,1000 µmol/kg
CCCC(C)C1(CC)C(=O)N=C([O-])NC1=O.[Na+] (stereo not drawn) [Nembutal],Protection (survival time),"[3]; 40 mg/kg, 30 min before hypoxia",253 ± 200 % of control
C#CCNC1CCc2ccc(OC(=O)N(C)CC)cc21 (stereo not drawn) [Compound 60],IC50,[1]; AChE Inhibition In vitro IC50,42 µM
C#CCNC1CCc2ccc(OC(=O)N(C)CCCC)cc21 (stereo not drawn) [Compound 86],IC50,[1]; [5],10.5 µM
"CNC(=O)Oc1ccc2c(c1)[C@]1(C)CCN(C)[C@@H]1N2C [physostigmine, reference compound]",response vs control in vivo at 0.2 mg/kg,[3]; [6],453 ± 222%
same,response vs control in vivo at 0.4 mg/kg,"[3]; Mus musculus, 0.4 mg/kg sc, 30 min before hypoxia, read-out: Protection (survival time)",552 ± 210%
C#CCNC1CCc2ccc(OC(=O)N(CC)CCCC)cc21 (stereo not drawn) [Compound 83],IC50,[1]; [7],80 µM
"CCN(C)C(=O)Oc1ccc2c(c1)C(N)CC2 (stereo not drawn) [Compound 3, 6-(N-Me,N-Et Carbamyloxy) aminoindan HCl]",Acute Toxicity LD50 (LD),mice,950 µmol/kg
same,IC50,"MAO-A [2]; MAO-A Inhibition In vitro IC50, rat brain homogenate",12.6 µM
same,AChE Inhibition Ex vivo ED50 (AC),whole brain AChE,46.3 µmol/kg
same,AChE Inhibition Time to peak activity t,whole brain AChE,60 to 90 min
same,AChE Inhibition Time to return to 50% of peak t,whole brain AChE,>180 min
CN(C(=O)Oc1ccc2c(c1)C(N)CC2)C1CCCCC1 (stereo not drawn) [Compound 17],IC50,[1]; [5],4 µM
C#CCNC1CCc2ccc(OC(=O)N(CC)C3CCCCC3)cc21 (stereo not drawn) [Compound 85],IC50,[1]; [7],17 µM
same,AChE Inhibition Ex vivo ED50 (AC),whole brain AChE,>100 µmol/kg
C#CCNC1CCc2ccc(OC(=O)NCC)cc21 (stereo not drawn) [Compound 56],IC50,[1]; [7],11.5 µM
same,AChE Inhibition Ex vivo ED50 (AC),whole brain AChE,180 µmol/kg
C#CCNC1CCc2cccc(OC(=O)N(C)CCC)c21 (stereo not drawn) [Compound 28],IC50,[1]; [7],100 µM
C#CCNC1CCc2ccc(OC(=O)N(C)CCCC)cc21 (stereo not drawn) [Compound 87],IC50,[1]; [5],9.1 µM
"C#CCNC1CCc2ccc(OC(=O)N(C)C)cc21 (single isomer, unassigned) [Compound 54]",MAO-A Inhibition Ex vivo ED50,MAO-A [4],>100 µmol/kg
same,MAO-B Inhibition Ex vivo ED50,MAO-B,>100 µmol/kg
CNC1CCc2cccc(OC(=O)N(C)C)c21 (stereo not drawn) [Compound 9],Acute Toxicity LD50 (LD),mice,93 µmol/kg
same,AChE Inhibition Ex vivo ED50 (AC),whole brain AChE,19 µmol/kg
same,AChE Inhibition Time to peak activity t,whole brain AChE,15 min
"CN(C)C(=O)Oc1cccc([N+](C)(C)C)c1 [neostigmine, reference compound]",response vs control in vivo at 0.2 mg/kg,[3]; [6],141 ± 32%
